Test results taken from patent publication US20060106107A1, “L-tartrate salt of N-1-Adamantyl-2-{3-[(2R)-2-({(2R)-2-hydroxy-2-[4-hydroxy-3-(hydroxymethyl)phenyl]ethyl}amino)propyl] phenyl}acetamide” (priority 2004, published 2006).
pEC50: −log10 of the molar value.

Target: T1, human β2 adrenergic receptor (Homo sapiens, UniProt P07550)
T1 construct: expressed in transfected cells; host or cells: CHO (Chinese Hamster Ovary) cells, CHOhβ2
Assay: cAMP Flashplate assay in CHO cells recombinantly expressing the human β2 adrenergic receptor (agonist potency)
Format: cell-based
Settings: CHOhβ2 cells, 1 hour incubation, 125I-cAMP Flashplate; data expressed as % Isoprenaline activity, four parameter sigmoid fit
Experimental: According to another alternative, the agonist potency for the β2 receptor of the L-tartrate salt of the invention may also be determined by the measure of the concentration of compound according to the present invention required to produce half maximal effect (EC50) for the β2 receptor.
10 mM/100% DMSO (dimethylsulfoxide) stock of compound is diluted to required top dose in 4% DMSO. This top dose is used to construct a 10-point semi-log dilution curve, all in 4% DMSO. Isoprenaline (Sigma, I-5627) was used as a standard in every experiment and for control wells on each plate. Data was expressed as % Isoprenaline response. […]
25 μl/well each dose of compound was transferred into a cAMP-Flashplate® (NEN, SMP004B), with 1% DMSO as basal controls and 100 nM Isoprenaline as max controls. […] The amount of ^125I-cAMP bound to the Flashplate® was quantified using a Topcount NXT (Packard), normal counting efficiency for 1 minute. Dose-response data was expressed as % Isoprenaline activity and fitted using a four parameter sigmoid fit.

T1 sequence (P07550 whole entry): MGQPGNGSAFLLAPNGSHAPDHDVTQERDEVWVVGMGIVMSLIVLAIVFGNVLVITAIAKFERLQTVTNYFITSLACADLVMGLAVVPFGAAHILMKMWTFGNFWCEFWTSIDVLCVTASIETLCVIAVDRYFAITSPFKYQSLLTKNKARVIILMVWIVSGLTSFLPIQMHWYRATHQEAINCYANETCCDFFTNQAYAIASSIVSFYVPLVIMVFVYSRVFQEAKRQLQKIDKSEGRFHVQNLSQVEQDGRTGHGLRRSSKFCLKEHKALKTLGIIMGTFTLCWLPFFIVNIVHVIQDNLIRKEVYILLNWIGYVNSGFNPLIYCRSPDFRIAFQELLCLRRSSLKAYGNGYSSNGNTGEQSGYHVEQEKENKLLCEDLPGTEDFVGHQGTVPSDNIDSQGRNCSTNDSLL

SMILES: C[C@H](Cc1cccc(CC(=O)NC23CC4CC(CC(C4)C2)C3)c1)NC[C@H](O)c1ccc(O)c(CO)c1 [example 1, N-1-Adamantyl-2-{3-[(2R)-2-({(2R)-2-hydroxy-2-[4-hydroxy-3-(hydroxymethyl)phenyl]ethyl}amino)propyl]phenyl}acetamide L-tartrate]
- pEC50: 10.12
